{"source": "patent US20120283282A1", "about": "“Photoproducts of Tryptophan, Their Synthesis and Uses Thereof” (priority 2009, published 2012)", "test_system": "hepatic glucose output", "test": "Glucose production assay in primary hepatocytes", "format": "cell-based", "settings": "FIG. 5", "protocol": "Primary hepatocytes were cultured in six-well plates (1.4 times 10^6 cells per well) in DMEM with 10% FBS or, in case of hormonal treatments, in serum-free DMEM. The medium was then replaced with 1 ml of glucose production buffer consisting of glucose-free DMEM (pH 7.4), without phenol red, supplemented with 20 mM sodium lactate and 2 mM sodium pyruvate. After a 3-h incubation, 0.5 ml of medium was collected and the glucose concentration measured with a colorimetric glucose assay kit (Sigma). The readings were then normalized to the total protein content determined from the whole-cell lysates. (Yoon J C, et al. Nature 413: 131-8, 2001.)", "data": [{"molecule": "c1ccc2c(-c3nccc4c3[nH]c3ccccc34)c[nH]c2c1", "note": "(single isomer, unassigned) [Compound F7, 1-(1H-indol-3-yl)-9H-pyrido[3,4-b]indole]", "values": [{"measurement": "hepatic glucose output", "value": "decreases hepatic glucose output"}]}]}
